Columns and labels:
[1] = Particle size (diameter) and polydispersity index of lipid nanoparticles; assay type: physicochemical; details: nanoparticles comprising the lipid
Experimental: A Zetasizer Nano ZS (Malvern Instruments Ltd, Malvern, Worcestershire, UK) can be used to determine the particle size, the polydispersity index (PDI) and the zeta potential of the nanoparticle compositions in 1×PBS in determining particle size and 15 mM PBS in determining zeta potential.
Lipid nanoparticles (e.g., empty LNPs or loaded LNPs) may be characterized by a variety of methods. For example, microscopy (e.g., transmission electron microscopy or scanning electron microscopy) may be used to examine the morphology and size distribution of a nanoparticle composition. Dynamic light scattering or potentiometry (e.g., potentiometric titrations) may be used to measure zeta potentials. Dynamic light scattering may also be utilized to determine particle sizes. Instruments such as the Zetasizer Nano ZS (Malvern Instruments Ltd, Malvern, Worcestershire, UK) may also be used to measure multiple characteristics of a nanoparticle composition, such as particle size, polydispersity index, and zeta potential.
(§1) Lipid nanoparticles (e.g., empty LNPs or loaded LNPs) including DSPC as a phospholipid, cholesterol as a structural lipid, PL-II (e.g., PEG-1) as a PEG lipid, and a lipid according to Formula (I-1), (I), (I-A), (I-A1), (I-A2), (I-A3), or (I-A4) were prepared. In some embodiments, the lipid nanoparticles further included rhodamine-DOPE as a fluorescent lipid. Tables 2a, 2b, and 3 summarize the characteristics of the formulations.

[2] = Encapsulation efficiency (% EE) of lipid nanoparticles; assay type: physicochemical; details: nanoparticles comprising the lipid
Experimental: For nanoparticle compositions including an RNA, a QUANT-IT™ RIBOGREEN® RNA assay (Invitrogen Corporation Carlsbad, CA) can be used to evaluate the encapsulation of an RNA by the nanoparticle composition. The samples are diluted to a concentration of approximately 5 μg/mL in a TE buffer solution (10 mM Tris-HCl, 1 mM EDTA, pH 7.5). 50 μL of the diluted samples are transferred to a polystyrene 96 well plate and either 50 μL of TE buffer or 50 μL of a 2% Triton X-100 solution is added to the wells. The plate is incubated at a temperature of 37° C. for 15 minutes. The RIBOGREEN® reagent is diluted 1:100 in TE buffer, and 100 μL of this solution is added to each well. The fluorescence intensity can be measured using a fluorescence plate reader (Wallac Victor 1420 Multilablel Counter; Perkin Elmer, Waltham, MA) at an excitation wavelength of, for example, about 480 nm and an emission wavelength of, for example, about 520 nm. The fluorescence values of the reagent blank are subtracted from that of each of the samples and the percentage of free RNA is determined by dividing the fluorescence intensity of the intact sample (without addition of Triton X-100) by the fluorescence value of the disrupted sample (caused by the addition of Triton X-100).
The efficiency of encapsulation of a therapeutic and/or prophylactic describes the amount of therapeutic and/or prophylactic that is encapsulated or otherwise associated with a lipid nanoparticle (e.g., an empty LNP or a loaded LNP) after preparation, relative to the initial amount provided. The encapsulation efficiency is desired to be high (e.g., close to 100%). The encapsulation efficiency may be measured, for example, by comparing the amount of therapeutic and/or prophylactic in a solution containing a loaded LNP before and after breaking up the loaded LNP with one or more organic solvents or detergents. Fluorescence may be used to measure the amount of free therapeutic and/or prophylactic (e.g., RNA) in a solution. For the loaded LNPs formulated with lipids of the disclosure, the encapsulation efficiency of a therapeutic and/or prophylactic is at least 50%, for example 50%, 55%, 60%, 65%, 70%, 75%, 80%, 85%, 90%, 91%, 92%, 93%, 94%, 95%, 96%, 97%, 98%, 99%, or 100%. In some embodiments, the encapsulation efficiency is at least 80%. In some embodiments, the encapsulation efficiency is at least 90%. In some embodiments, the encapsulation efficiency of the therapeutic and/or prophylactic agent is between 80% and 100%.
as §1

[3] = Lipid nanoparticle surface hydrophobicity by Generalized Polarization by Laurdan (N-GP); assay type: physicochemical; details: for Lipid nanoparticle surface hydrophobicity (N-GP*): Table 2a, Laurdan, higher N-GP indicates a less polar surface; for LNP surface hydrophobicity (N-GP*): Table 2b, nanoparticles comprising the lipid
Excerpt: Surface hydrophobicity of nanoparticles of the disclosure can be measured by Generalized Polarization by Laurdan (GPL). In this method, Laurdan, a fluorescent aminonaphthalene ketone lipid, is post-inserted into the nanoparticle surface and the fluorescence spectrum of Laurdan is collected to determine the normalized Generalized Polarization (N-GP). In some embodiments, nanoparticles formulated with lipids of the disclosure have a surface hydrophobicity expressed as N-GP of between about 0.5 and about 1.5. For example, in some embodiments, nanoparticles formulated with lipids of the disclosure have a surface hydrophobicity expressed as N-GP of about 0.5, about 0.6, about 0.7, about 0.8, about 0.9, about 1.0, about 1.1, about 1.2, about 1.3, about 1.4, or about 1.5. In some embodiments, nanoparticles formulated with lipids of the disclosure have a surface hydrophobicity expressed as N-GP of about 1.0 or about 1.1.

[4] = Apparent pKa of lipid nanoparticles; assay type: physicochemical; details: for Apparent pKa: Table 2a, nanoparticles comprising the lipid; for Apparent pKa 95% CI: Table 2b, 95% confidence interval
CD-1 mice = assay: Expression of hEPO induced by LNPs (mRNA encoding hEPO) administered to mice; assay type: in vivo; details: serum, 6 h after intravenous injection; for Avg. hEPO Concentration (mIU/mL) ± Avg. SD / Avg. hEPO Concentration (mIU/mL)* ± Avg. SD: Table 4a; for Avg. hEPO Concentration (mIU/mL)* ± Avg. SD / Avg. hEPO Concentration (mIU/mL): ELLA Simple Plex Assay; for Avg. hEPO Concentration (mIU/mL): Table 4b
Experimental: In some embodiments, hEPO concentrations were determined using an […] (ELLA) Simple Plex Assay (ProteinSimple) with a Human Erythroprotein cartridge. Standards for this assay are calibrated according to the 2. IRP WHO preparation. Nanoparticle compositions including mRNA are useful in the evaluation of the efficacy and usefulness of various formulations for the delivery of therapeutic and/or prophylactics. Higher levels of protein expression induced by administration of a composition including an mRNA will be indicative of higher mRNA translation and/or nanoparticle composition mRNA delivery efficiencies. As the non-RNA components are not thought to affect translational machineries themselves, a higher level of protein expression is likely indicative of a higher efficiency of delivery of the therapeutic and/or prophylactic by a given nanoparticle composition relative to other nanoparticle compositions or the absence thereof.
To assess potency of expression of lipids of the disclosure, the protein expression (hEPO) following administration of a nanoparticle comprising a lipid of the disclosure (e.g., a loaded LNP) to mice was measured.
Lipid nanoparticles (LNPs) including DSPC as a phospholipid, cholesterol as a structural lipid, PL-II (e.g., PEG-1) as a PEG lipid, a lipid according to Formula (I-1), (I), (I-A), (I-A1), (I-A2), (I-A3), or (I-A4), and an mRNA encoding hEPO were intravenously administered to CD-1 mice. The concentration of hEPO in serum was tested at 6 h after injection.

[5] = Table 2a, DSPC, cholesterol, PEG lipid

Structure (SMILES)	PDI ([1]; Table 2a)	Diameter (nm) [1, 5] [nm]	Diameter (nm) ([1]; Table 3)	PDI ([1]; Table 3)	% EE ([2]; Table 2a) [%]	% EE ([2]; Table 3) [%]	Lipid nanoparticle surface hydrophobicity (N-GP*) [3]	Apparent pKa [4]	Avg. hEPO Concentration (mIU/mL) ± Avg. SD (CD-1 mice) [mIU/mL]	Diameter (nm) ([1]; Table 2b)	PDI ([1]; Table 2b)	% EE ([2]; Table 2b) [%]	LNP surface hydrophobicity (N-GP*) [3]	Apparent pKa 95% CI [4]	Avg. hEPO Concentration (mIU/mL)* ± Avg. SD (CD-1 mice) [mIU/mL]	Avg. hEPO Concentration (mIU/mL) (CD-1 mice)
CCCCCCCCC(CCCCCCCC)OC(=O)CCCCCCCN(CCCCCCCC(=O)OCCC(CCCC)CCCC)CCCNc1n[s+]([O-])nc1NC (stereo not shown) [Compound 1]	0.342	69.7	63.3	0.083	98.1	97.9	1.07	7.187	7.26E+06 ± 1.51E+05							
CCCCCCCCC(CCCCCCCC)OC(=O)CCCCCCCN(CCCCCCCC(=O)OCCC(CCCC)CCCC)CCCNc1noc(N)n1 [Compound 2]			52.6	0.163		97.6				68.6	0.214	99.2	1.21	6.437 to 6.559	3.38E+05 ± 9.49E+03	
CCCCCCCCC(CCCCCCCC)OC(=O)CCCCCCCN(CCCCCCCC(=O)OCCC(CCCC)CCCC)CCCNS(=O)(=O)CCOC [Compound 3]	0.099	72.1	80.9	0.139	89.4	95.6	1.00	6.549	7.11E+06 ± 1.75E+05							
CCCCCCCCC(CCCCCCCC)OC(=O)CCCCCCCN(CCCCCCCC(=O)OCCC(CCCC)CCCC)CCCNC(=O)C1(C)CC1 [Compound 4]			84.6	0.194		54.1				94.5	0.198	45.9	1.05	6.676 to 6.749	1.04E+07 ± 2.85E+05	
CCCCCCCCC(CCCCCCCC)OC(=O)CCCCCCCN(CCCCCCCC(=O)OCCC(CCCC)CCCC)CCCNS(=O)(=O)CC [Compound 5]	0.073	67.2	83.1	0.166	93.4	96.0	1.02	6.536	1.04E+07 ± 2.49E+05							
CCCCCCCCC(CCCCCCCC)OC(=O)CCCCCCCN(CCCCCCCC(=O)OCCC(CCCC)CCCC)CCCNS(=O)(=O)Cc1ccon1 [Compound 6]	0.042	60.2	65.9	0.163	93.2	96.7	0.99	6.323	5.41E+06 ± 6.06E+04							
CCCCCCCCC(CCCCCCCC)OC(=O)CCCCCCCN(CCCCCCCC(=O)OCCC(CCCC)CCCC)CCCNc1ncccc1N [Compound 7]			72.6	0.133		99.0				76.9	0.129	98.0	1.17	6.654 to 6.751	1.04E+06 ± 2.04E+04	
CCCCCC(CCCCC)CCOC(=O)CCCCCCCN(CCCCCCCC(=O)OCCC(CCCC)CCCC)CCCNc1n[s+]([O-])nc1NC (stereo not shown) [Compound 8]	0.144	86.9	90.9	0.217	89.6	97.1	0.99	6.934	4.95E+06 ± 1.24E+05							
CCCCCC(CCCCC)CCOC(=O)CCCCCCCN(CCCCCCCC(=O)OCCC(CCCC)CCCC)CCCNc1noc(N)n1 [Compound 9]			69.7	0.165		91.2				96.9	0.103	91.9	0.98	6.583 to 6.671	1.84E+06 ± 2.44E+04	
CCCCCC(CCCCC)CCOC(=O)CCCCCCCN(CCCCCCCC(=O)OCCC(CCCC)CCCC)CCCNS(=O)(=O)CCOC [Compound 10]	0.208	133.3	96.7	0.154	55.1	91.7	1.03	6.738	6.15E+06 ± 1.35E+05	122.3	0.181	65.0	0.89	6.644 to 6.741		
CCCCCCCCC(CCCCCCCC)OC(=O)CCCCCCCN(CCCCCCCC(=O)OCCC(CCCC)CCCC)CCCNC=O [Compound 59]																3.27E+05
CCCCCCCCC(CCCCCCCC)OC(=O)CCCCCCCN(CCCCCCCC(=O)OCCC(CCCC)CCCC)CCCNC(=O)C1CN(C(C)=O)C1 [Compound 60]																2.10E+02
